Experiments:
[1] = target: T1, CDK9/CycT1 (Homo sapiens, UniProt P50750); test: CDK9/CycT1 high ATP kinase assay (TR-FRET, 2 mM ATP); format: biochemical; conditions: 2 mM ATP (high ATP); median; read-out: CDK9/CyclinT1, 2 mM ATP (high ATP), IC50 (median)
T1 construct: Recombinant full-length His-tagged human CDK9 and CycT1; purchased Life Technologies PV4131; host or cells: insect cells
Outline: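 Full-length His-tagged human CDK9/CycT1 (insect cell, ~0.5 μg/mL) preincubated 15 min at 22 °C with compound in Tris pH 8.0, MgCl2, DTT buffer before reaction with biotinylated peptide substrate at high ATP (2 mM).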

[2] = test system: MDA-MB-231, human breast cancer cells; test: Proliferation assay MDA-MB-231 (crystal violet, 4 days); format: cell-based; conditions: Homo sapiens, MDA-MB-231, 96 h, MDA-MB-231 cells, median, read-out: Prolif-MDA MB-231, IC50-[mol/l] (median)
Outline: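 IC50 from a 4-parameter fit of crystal violet absorbance (595 nm), scaled between the day-of-dosing plate (0%) and vehicle cells (100%). MDA-MB-231 or CAL-120 cells were treated for 4 days with 0.01–10 micromol/L compound in 0.1% DMSO after 24 h attachment.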

[3] = target: T2, CDK12 (nuclear staining in CAL-120 cells) (Homo sapiens, UniProt Q9NYV4); test: CDK12 nuclear protein level: immunofluorescence/high content analysis (CAL-120); format: cell-based; conditions: for DC50: CAL-120 cells, 24 h, immunofluorescence, 50% reduction of nuclear CDK12 staining intensity, median, read-out: CDK12 degradation IF, DC50- [mol/l] (median); for (IC50 CDK12 high ATP) to (Degradation DC50 CDK12) ratio: ratio of IC50 CDK12 high ATP kinase assay to DC50 CDK12 degradation (IF, CAL-120)
T2 construct: endogenous in cells; host or cells: CAL-120 human breast cancer cells (DSMZ ACC 459)
T2 sequence (Q9NYV4 whole entry): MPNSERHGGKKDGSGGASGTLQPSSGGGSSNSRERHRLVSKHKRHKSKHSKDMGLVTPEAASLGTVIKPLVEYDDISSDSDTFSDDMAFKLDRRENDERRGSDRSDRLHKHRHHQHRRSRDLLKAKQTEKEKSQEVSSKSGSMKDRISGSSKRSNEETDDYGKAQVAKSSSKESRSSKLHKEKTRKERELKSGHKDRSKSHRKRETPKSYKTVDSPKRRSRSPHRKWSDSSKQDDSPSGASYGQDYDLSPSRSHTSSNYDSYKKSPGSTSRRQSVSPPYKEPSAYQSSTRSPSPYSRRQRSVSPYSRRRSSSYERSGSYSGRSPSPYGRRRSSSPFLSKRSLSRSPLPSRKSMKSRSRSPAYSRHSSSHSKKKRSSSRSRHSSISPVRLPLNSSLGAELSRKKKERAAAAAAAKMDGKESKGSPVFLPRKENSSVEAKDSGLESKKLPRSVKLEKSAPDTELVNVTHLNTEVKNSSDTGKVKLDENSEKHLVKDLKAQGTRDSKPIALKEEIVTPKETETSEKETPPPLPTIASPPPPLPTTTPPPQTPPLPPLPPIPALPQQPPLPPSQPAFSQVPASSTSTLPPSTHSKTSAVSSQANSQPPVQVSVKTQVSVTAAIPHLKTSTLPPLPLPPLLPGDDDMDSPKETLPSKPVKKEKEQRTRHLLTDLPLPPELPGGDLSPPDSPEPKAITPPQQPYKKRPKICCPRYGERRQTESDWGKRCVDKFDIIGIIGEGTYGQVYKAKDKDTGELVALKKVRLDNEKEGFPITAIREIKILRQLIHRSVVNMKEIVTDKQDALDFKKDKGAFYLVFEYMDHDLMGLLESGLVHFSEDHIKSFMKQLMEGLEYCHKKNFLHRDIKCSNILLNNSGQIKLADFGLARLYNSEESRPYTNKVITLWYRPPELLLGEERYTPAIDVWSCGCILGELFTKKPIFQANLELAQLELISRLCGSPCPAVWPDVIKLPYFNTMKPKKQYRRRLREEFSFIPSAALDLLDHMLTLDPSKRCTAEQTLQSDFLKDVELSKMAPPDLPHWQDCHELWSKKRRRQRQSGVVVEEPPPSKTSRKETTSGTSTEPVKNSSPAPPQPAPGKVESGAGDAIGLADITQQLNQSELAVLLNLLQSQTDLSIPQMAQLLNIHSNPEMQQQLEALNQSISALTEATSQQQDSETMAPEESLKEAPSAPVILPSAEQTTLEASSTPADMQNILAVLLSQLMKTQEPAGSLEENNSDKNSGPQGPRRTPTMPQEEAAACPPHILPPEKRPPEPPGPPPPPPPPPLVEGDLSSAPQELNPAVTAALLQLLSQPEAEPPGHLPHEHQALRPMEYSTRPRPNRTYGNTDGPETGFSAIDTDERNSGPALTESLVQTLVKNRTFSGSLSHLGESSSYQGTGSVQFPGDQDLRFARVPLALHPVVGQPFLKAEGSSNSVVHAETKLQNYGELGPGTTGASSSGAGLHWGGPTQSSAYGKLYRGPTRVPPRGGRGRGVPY
T2 sequence (O75909 whole entry partner): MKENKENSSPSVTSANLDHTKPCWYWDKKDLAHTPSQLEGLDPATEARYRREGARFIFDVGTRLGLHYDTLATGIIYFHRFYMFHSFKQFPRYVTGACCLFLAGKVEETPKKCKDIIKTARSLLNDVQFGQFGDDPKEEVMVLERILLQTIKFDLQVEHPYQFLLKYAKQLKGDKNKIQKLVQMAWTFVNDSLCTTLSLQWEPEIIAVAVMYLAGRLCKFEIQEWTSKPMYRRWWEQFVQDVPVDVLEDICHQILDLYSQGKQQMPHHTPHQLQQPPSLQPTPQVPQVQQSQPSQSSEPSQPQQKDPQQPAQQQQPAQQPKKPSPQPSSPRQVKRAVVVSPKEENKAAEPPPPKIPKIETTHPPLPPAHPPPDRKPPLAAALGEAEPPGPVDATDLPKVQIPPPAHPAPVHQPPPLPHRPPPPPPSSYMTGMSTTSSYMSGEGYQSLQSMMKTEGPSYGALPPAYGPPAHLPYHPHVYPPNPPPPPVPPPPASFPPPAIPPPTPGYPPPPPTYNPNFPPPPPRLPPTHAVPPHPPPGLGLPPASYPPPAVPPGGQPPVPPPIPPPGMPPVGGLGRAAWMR
Outline: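 DC50 is the degrader concentration that halves nuclear CDK12 immunofluorescence relative to controls, measured by high-content imaging. CAL-120 cells were exposed to compound for 24 h at 37 °C before PFA fixation, and signal was normalized to DMSO and control wells.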

[4] = target: T3, CYCLIN K (nuclear staining in CAL-120 cells) (Homo sapiens, UniProt O75909); test: CYCLIN K nuclear protein level: immunofluorescence high content analysis (CAL-120); format: cell-based; conditions: 24 h, 50% reduction of nuclear CCNK staining intensity, median, read-out: CYCLIN K degradation IF, DC50-[mol/l] (median)
T3 construct: endogenous in cells; host or cells: CAL-120 human breast cancer cells (DSMZ ACC 459)
T3 sequence (O75909 whole entry): as the sequence (O75909 whole entry partner) above
T3 sequence (Q9NYV4 whole entry partner): as the sequence (Q9NYV4 whole entry) above
Outline: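 Readout is automated confocal image analysis of nuclear cyclin K immunofluorescence (Hoechst nuclei) after PFA fixation. Cells were CAL-120, exposed to compound dose-response 24 h at 37 °C; values are DC50 for halving nuclear CCNK signal relative to DMSO and control wells.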

T1 sequence (P50750 whole entry): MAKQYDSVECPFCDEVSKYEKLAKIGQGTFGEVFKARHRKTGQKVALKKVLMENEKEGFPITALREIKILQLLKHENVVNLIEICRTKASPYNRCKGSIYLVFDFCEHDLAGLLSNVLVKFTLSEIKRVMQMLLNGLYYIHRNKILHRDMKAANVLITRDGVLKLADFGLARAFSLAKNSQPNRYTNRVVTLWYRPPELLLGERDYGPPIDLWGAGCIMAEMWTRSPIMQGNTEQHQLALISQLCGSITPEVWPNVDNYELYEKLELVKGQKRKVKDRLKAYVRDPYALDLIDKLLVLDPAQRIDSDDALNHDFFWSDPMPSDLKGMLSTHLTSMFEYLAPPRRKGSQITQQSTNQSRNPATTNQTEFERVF
T1 sequence (O60563 whole entry partner): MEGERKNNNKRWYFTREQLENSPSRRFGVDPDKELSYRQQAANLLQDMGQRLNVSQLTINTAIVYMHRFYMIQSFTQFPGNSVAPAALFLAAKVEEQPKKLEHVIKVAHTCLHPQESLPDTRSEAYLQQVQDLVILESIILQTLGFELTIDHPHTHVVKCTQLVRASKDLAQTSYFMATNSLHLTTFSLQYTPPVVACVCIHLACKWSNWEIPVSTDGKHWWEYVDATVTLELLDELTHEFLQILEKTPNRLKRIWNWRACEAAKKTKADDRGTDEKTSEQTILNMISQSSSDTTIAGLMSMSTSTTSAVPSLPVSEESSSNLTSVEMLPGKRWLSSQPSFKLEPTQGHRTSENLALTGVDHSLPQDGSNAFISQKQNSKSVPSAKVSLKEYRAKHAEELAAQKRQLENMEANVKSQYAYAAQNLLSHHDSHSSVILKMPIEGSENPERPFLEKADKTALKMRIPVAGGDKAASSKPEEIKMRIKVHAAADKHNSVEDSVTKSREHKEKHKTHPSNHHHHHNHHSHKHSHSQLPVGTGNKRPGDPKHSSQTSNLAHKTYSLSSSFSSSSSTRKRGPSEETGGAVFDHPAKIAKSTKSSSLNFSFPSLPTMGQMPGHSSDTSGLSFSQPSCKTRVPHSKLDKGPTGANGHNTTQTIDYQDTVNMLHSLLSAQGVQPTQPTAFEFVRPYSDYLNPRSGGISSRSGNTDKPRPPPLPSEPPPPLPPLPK

CC(C)(O)COc1nc(NCc2nc3ccccc3[nH]2)n2ncc(Br)c2n1 [Example 398, 1-[(4-{[(1H-benzimidazol-2-yl)methyl]amino}-8-bromopyrazolo[1,5-a][1,3,5]triazin-2-yl)oxy]-2-methylpropan-2-ol]
IC50 [1]: > 20 µM
IC50 [2]: 0.0592 µM
DC50 [3]: 0.0662 µM
(IC50 CDK12 high ATP) to (Degradation DC50 CDK12) ratio [3]: 221
DC50 [4]: 0.0104 µM

CN1CCN(c2nc(NCc3nc4ccccc4[nH]3)n3ncc(C4CC4(F)F)c3n2)CC1 (stereo not drawn) [Example 428, N-(1H-benzimidazol-2-ylmethyl)-8-(2,2-difluorocyclopropyl)-2-(4-methylpiperazin-1-yl)pyrazolo[1,5-a][1,3,5]triazin-4-amine]
IC50 [1]: > 20 µM
IC50 [2]: 0.174 µM
DC50 [3]: 0.00703 µM
(IC50 CDK12 high ATP) to (Degradation DC50 CDK12) ratio [3]: >2847
DC50 [4]: 0.00619 µM

Fc1ccc2[nH]c(CNc3nc(N4CCOCC4)nc4c(-c5ccnnc5)cnn34)nc2c1F [Example 417, N-[(4,5-difluoro-1H-benzimidazol-2-yl)methyl]-2-(morpholin-4-yl)-8-(pyridazin-4-yl)pyrazolo[1,5-a][1,3,5]triazin-4-amine]
IC50 [1]: > 1.63 µM
IC50 [2]: 0.0831 µM
DC50 [3]: 0.00275 µM
(IC50 CDK12 high ATP) to (Degradation DC50 CDK12) ratio [3]: >2815
DC50 [4]: 0.00125 µM

— patent US20230117034A1, “PYRAZOLOTRIAZINES” (Bayer Aktiengesellschaft, priority 2019, published 2023)
